Data from patent publication US12611406B2, “Oxopiperazine derivatives for the treatment of cancer” (Inthera Bioscience AG, priority 2020, dated 2026).
Entries after “also recorded” stand apart in the source; their conditions may differ. Like-named read-outs stand apart in the source and are kept apart here.

Legend:
A549 NSCLC cells = assay: Cell cycle FACS analysis; assay type: cell-based; conditions: A549, wild-type Rb and p53; 20 or 200 nM, 24 h
Method: Cell cycle phase distribution in control (C) cells or cells treated at 20 or 200 nM Compound 1 for 24 hours (24 h) determined by fluorescence activated cell sorting (FACS) analysis, and detection of histone H2A variant H2A.X phosphorylation (γH2A.X, also referred to herein as gamma H2A.X or γH2A.X) by Western blot as DNA damage biomarker.
In FIG. 3A, protein amounts were normalized using total protein load with ImageLab 6.0 Software (BioRad).

[1] = 28-day once weekly oral repeated-dose DRF TK study in Beagle dogs (mesylate salt), plasma; assay type: in vivo; conditions: for AUC / Cmax: both sexes, Beagle, dog, plasma, po
Method: The objective of the study was to determine the TK profile of Compound 1 following 4 weekly oral administrations to Beagle dog and to assess reversibility of any changes following a 13-day recovery period.
The test item Compound 1 (mesylate salt) was administered in 4 weekly doses by oral gavage to groups of Beagle dogs (n=2/sex/group) at dose levels of 10, 15, and 20 mg/kg bodyweight per week. A suspension of 0.5% methylcellulose (w/v) in sterile water served as vehicle. Blood samples for PK analysis were collected for each dosing day (Day 1, 8, 15, and 22) at pre-dose, 0.25, 0.5, 1, 2, 4, 6, 8, 12, and 24 hours after administration.
Total plasma concentrations of Compound 1 were analyzed using a qualified LC-MS/MS method.
Dosing at 15 mg/kg/adm was limited to 2 weekly doses, since animals were subjected to necropsy investigation 3 days after the second dose (Day 8) in order to investigate possible macroscopic changes during the treatment period. n.d.: not determined. AUC parameters were calculated using GraphPad Prism version 9.

[2] = 28-day once weekly oral repeated-dose DRF study in cynomolgus monkeys (mesylate salt); assay type: in vivo; conditions: for Cmax / Tmax / half-life / AUC(0-t): cynomolgus monkey, po; for AUC(0-t): read-out: AUC0-Tlast
Method: The objective of the study was to determine the TK profile of Compound 1 following 4 weekly oral administrations to cynomolgus monkeys and to assess reversibility of any changes following a 13-day recovery period.
Male and female cynomolgus monkeys (n=1/sex/group) were orally administered Compound 1 (mesylate salt) at dose levels of 30, 45, 60, or 90 mg/kg/administration for 4 consecutive doses on study days 1, 8, 15, and 22. The vehicle was 0.5% (w/v) methyl cellulose 400 in sterile water. For TK analysis blood samples were collected from each monkey on Days 1, 8, 15 and 22 at pre-dose, 15 min, 30 min, as well as 1, 2, 4, 6, 8, 12, and 24 hours post-dose. Non-compartmental analysis of Compound 1 blood concentrations data sets was performed using the Phoenix® WinNonlin® software (version 6.4).

[3] = Plasma protein binding, equilibrium dialysis; assay type: in vitro ADME, cynomolgus monkey; conditions: monkey plasma, 37° C, buffer pH 7.4; read-out: Fraction unbound (Fu), Mean
Method: Protein binding of Compound 1 to the plasma from several species, i.e., human, cynomolgus monkey, dog, rat, and mouse was investigated in vitro by incubation in plasma and determination of unbound fraction of Compound 1 using equilibrium dialysis. Compound 1 was incubated in 100% species-specific plasma and added to one side of the membrane in an equilibrium dialysis system while buffer (pH 7.4) is added to the other side. The system was allowed to reach equilibrium at 37° C. Compound concentration on both sides of the membrane is measured by liquid chromatography—tandem mass spectroscopy (LC-MS/MS).

NCI-H69 = NCI-H69 small cell lung cancer CDX mouse model; conditions: for Tumor growth inhibition: p <0.001
Method: The 30 mg/kg group was given initially QW at 30 mg/kg and from day 31 onwards was given once weekly at 60 mg/kg, as indicated.
In Table 2, tumor growth inhibition (TGI) calculations are based on additional growth of tumors, i.e., tumor sizes on the day of TGI estimation minus tumor sizes at the start of treatment are used for calculations. Values larger than 100% indicate tumor regression. […] The total daily dose of 60 mg/kg was administered as *single dose or given as **30 mg/kg BID (twice daily).

[4] = 10 mg/kg, 10 mg/kg weekly, Day 1
[5] = 10 mg/kg, 10 mg/kg weekly, Day 8
[6] = 10 mg/kg, 10 mg/kg weekly, Day 15
[7] = 10 mg/kg, 10 mg/kg weekly, Day 22
[8] = 15 mg/kg, 15 mg/kg weekly, Day 1
[9] = 15 mg/kg, 15 mg/kg weekly, Day 8
[10] = female, blood, 45 mg/kg, F, Day 1
[11] = female, blood, 45 mg/kg, F, Day 22
[12] = female, blood, 60 mg/kg, F, Day 1
[13] = female, blood, 60 mg/kg, F, Day 22
[14] = female, blood, 90 mg/kg, F, Day 1
[15] = female, whole blood, 30 mg/kg, F, Day 1
[16] = female, whole blood, 30 mg/kg, F, Day 22
[17] = male, blood, 60 mg/kg, M, Day 1
[18] = male, blood, 60 mg/kg, M, Day 22
[19] = male, blood, 90 mg/kg, M, Day 1
[20] = male, whole blood, 30 mg/kg, M, Day 1
[21] = male, whole blood, 30 mg/kg, M, Day 22
[22] = male, whole blood, 45 mg/kg, M, Day 1
[23] = male, whole blood, 45 mg/kg, M, Day 22

## CC(C)C[C@@H]1NCCN([C@@H](CC(C)C)C(=O)N2CCC3(C[C@@H]2C)OCC(CN2CCCC2)CO3)C1=O (stereo partly drawn) [Compound 1, (S)-3-isobutyl-1-((S)-4-methyl-1-((S)-8-methyl-3-(pyrrolidin-1-ylmethyl)-1,5-dioxa-9-azaspiro[5.5]undecan-9-yl)-1-oxopentan-2-yl)piperazin-2-one]
A549 NSCLC cells
  cell cycle response: arrested in G1-phase
[1]; 15 mg/kg/adm, limited to 2 oral doses (Days 1 and 8)
  clinical signs: reduced food and water intake
[1]; [4]
  AUC: 1.72 µg·h/mL
  Cmax: 0.536 µg/mL
[1]; [5]
  AUC: 1.59 µg·h/mL
  Cmax: 0.512 µg/mL
[1]; [6]
  AUC: 1.66 µg·h/mL
  Cmax: 0.497 µg/mL
[1]; [7]
  AUC: 1.17 µg·h/mL
  Cmax: 0.36 µg/mL
[1]; [8]
  AUC: 2.63 µg·h/mL
  Cmax: 0.752 µg/mL
[1]; [9]
  AUC: 2.3 µg·h/mL
  Cmax: 0.506 µg/mL
[1]; 20 mg/kg, Day 1
  AUC: 3.01 µg·h/mL
  Cmax: 0.994 µg/mL
[1]; single oral administration of 20 mg/kg/adm, 20 mg/kg
  tolerability: serious adverse event (SAE) on day 5; also recorded: not tolerated in one female Beagle dog
[1]; weekly oral for 4 consecutive weeks at 10 mg/kg/adm
  tolerability: tolerated
[2]; [10]
  Cmax: 1.46 µg/mL
  Tmax: 1.5 h
  half-life: 6.3 h
  AUC(0-t): 4.13 µg·h/mL
[2]; [11]
  Cmax: 1.65 µg/mL
  Tmax: 1.5 h
  half-life: 5.8 h
  AUC(0-t): 4.81 µg·h/mL
[2]; [12]
  Cmax: 1.83 µg/mL
  Tmax: 1 h
  half-life: 3.8 h
  AUC(0-t): 7.44 µg·h/mL
[2]; [13]
  Cmax: 4.48 µg/mL
  Tmax: 2 h
  half-life: 4.4 h
  AUC(0-t): 17.4 µg·h/mL
[2]; [14]
  Cmax: 5.03 µg/mL
  Tmax: 1.5 h
  half-life: 4.3 h
[2]; [15]
  Cmax: 0.296 µg/mL
  Tmax: 0.63 h
  half-life: 6.4 h
  AUC(0-t): 0.894 µg·h/mL
[2]; [16]
  Cmax: 0.223 µg/mL
  Tmax: 1.25 h
  half-life: 5.5 h
  AUC(0-t): 0.874 µg·h/mL
[2]; female, whole blood, 90 mg/kg, F, Day 1
  AUC(0-t): 18.7 µg·h/mL
[2]; [17]
  Cmax: 0.449 µg/mL
  Tmax: 0.5 h
  half-life: 7.5 h
  AUC(0-t): 1.17 µg·h/mL
[2]; [18]
  Cmax: 2.43 µg/mL
  Tmax: 1 h
  half-life: 5.7 h
  AUC(0-t): 6.71 µg·h/mL
[2]; [19]
  Cmax: 7.3 µg/mL
  Tmax: 0.63 h
  half-life: 4.2 h
  AUC(0-t): 22.8 µg·h/mL
[2]; [20]
  Cmax: 0.229 µg/mL
  Tmax: 0.63 h
  half-life: 4.9 h
  AUC(0-t): 0.721 µg·h/mL
[2]; [21]
  Cmax: 0.171 µg/mL
  Tmax: 2 h
  half-life: 2.6 h
  AUC(0-t): 0.576 µg·h/mL
[2]; [22]
  Cmax: 1.04 µg/mL
  Tmax: 1.5 h
  half-life: 7.6 h
  AUC(0-t): 2.95 µg·h/mL
[2]; [23]
  Cmax: 1.35 µg/mL
  Tmax: 1.25 h
  half-life: 5.2 h
  AUC(0-t): 3.91 µg·h/mL
[2]; once weekly for 4 weeks at doses up to 60 mg/kg
  accumulation: did not accumulate
[2]; single oral administration of 90 mg/kg/adm
  tolerability: side effects in one animal
[2]; weekly oral for 4 consecutive weeks at 30, 45, and 60 mg/kg/administration
  tolerability: well-tolerated
[3]
  fraction unbound: 0.602
NCI-H69; 3 mg/kg oral daily continuous
  body weight: slight body weight loss
  tumor response: regressions of tumors
NCI-H69; 3 mg/kg oral every other week
  tolerability: well tolerated
NCI-H69; 3 mg/kg oral, every other week compared to same dose daily
  anti-tumor activity, every other week vs daily: almost the same anti-tumor growth activity
NCI-H69; 30 mg/kg once every seven days, 60 mg/kg weeks 4 to 7, compared to 3 mg/kg daily
  anti-tumor activity, once weekly vs daily: same anti-tumor growth activity
NCI-H69; intermittent (once weekly) dosing
  body weight: did not cause significant body weight decreases
NCI-H69; once weekly 15 mg/kg/day, 7 weeks
  Tumor growth inhibition: 58% (<0.001)/
NCI-H69; once weekly 30 mg/kg/day, 3 weeks
  Tumor growth inhibition: 76% (<0.001)/
NCI-H69; once weekly 60 mg/kg/day, 4 weeks, after 3 weeks at 30 mg/kg
  Tumor growth inhibition: 103% (<0.001)/
